# Experimental data reported in US20250340540A1, “Crystal Forms Of HS378 And Preparation Method Therefor” (priority 2022, published 2025).
# Like-named read-outs stand apart in the source and are kept apart here.
# Columns and labels:
# [1] = type: physicochemical; conditions: for Changes of HPLC purity over 10 days: 10 days vs 0 day; for Stability of crystal form and HPLC data: 10 days
# Procedure: The X-ray powder diffraction instrument and test conditions involved in the present disclosure were as follows: X-ray diffraction instrument model MiniFlex600Cu target; operation method: scanning speed 20°/min, scanning step width 0.02°. The liquid phase test conditions involved in the present disclosure were as follows: chromatographic column: Agilent Zorbax SB-18, 150×4.6 mm, 5 μm; mobile phase A: 0.1% phosphoric acid aqueous solution; mobile phase B: acetonitrile; detection wavelength: 205 nm; flow rate: 1.0 ml/min; injection volume: 5 μl; column temperature: […]. The samples of crystal form A obtained in Example 1, the crystal form B obtained in Example 5 of the present disclosure, and the crystal forms 1, 2, 4, and 5 obtained in Preparation Example were placed at 60° C. for 5 days and 10 days, respectively, and subjected to HPLC and XRD detection, respectively.
# [2] = Microscope photographs: crystal habit and particle fluidity; type: physicochemical; conditions: judged from microscope photographs
# From the text: Microscope photographs of the samples of the crystal form A obtained in Example 1, the crystal form B obtained in Example 5 of the present disclosure, and the crystal forms 1, 2, 4, and 5 obtained in Preparation Example are shown in FIGS. 7-12, respectively.
# [3] = human, in vivo; cited from earlier work
# [4] = 0 Day, before placing at 60° C.
Compound,"HPLC purity (%) [1, 4]","HPLC purity (%) ([1]; 60° C., 5 Days)","HPLC purity (%) ([1]; 60° C., 10 Days)",Changes of HPLC purity over 10 days ([1]; 60° C.),Stability of crystal form and HPLC data [1],Particle fluidity [2],Oral plasma concentration [3]
CC(C)(C)[C@H](NC(=O)C(F)(F)F)C(=O)N1C[C@H]2[C@@H]([C@H]1C(=O)N[C@H](C#N)C[C@@H]1CCNC1=O)C2(C)C [Crystal form 1],95.34%,95.34%,95.31%,−0.03,"more stable than crystal form 2, crystal form 4 and crystal form 5",poor fluidity,–
CC(C)(C)[C@H](NC(=O)C(F)(F)F)C(=O)N1C[C@H]2[C@@H]([C@H]1C(=O)N[C@H](C#N)C[C@@H]1CCNC1=O)C2(C)C [Crystal form 2],93.83%,93.71%,93.52%,−0.31,–,poor fluidity,–
CC(C)(C)[C@H](NC(=O)C(F)(F)F)C(=O)N1C[C@H]2[C@@H]([C@H]1C(=O)N[C@H](C#N)C[C@@H]1CCNC1=O)C2(C)C [Crystal form 4],93.31%,93.26%,93.14%,−0.17,–,–,–
CC(C)(C)[C@H](NC(=O)C(F)(F)F)C(=O)N1C[C@H]2[C@@H]([C@H]1C(=O)N[C@H](C#N)C[C@@H]1CCNC1=O)C2(C)C [Crystal form 5],91.23%,91.05%,90.79%,−0.44,–,poor fluidity,–
CC(C)(C)[C@H](NC(=O)C(F)(F)F)C(=O)N1C[C@H]2[C@@H]([C@H]1C(=O)N[C@H](C#N)C[C@@H]1CCNC1=O)C2(C)C [Crystal form A],99.86%,99.86%,99.85%,−0.01,"more stable than crystal form 2, crystal form 4 and crystal form 5",good in particle fluidity,–
CC(C)(C)[C@H](NC(=O)C(F)(F)F)C(=O)N1C[C@H]2[C@@H]([C@H]1C(=O)N[C@H](C#N)C[C@@H]1CCNC1=O)C2(C)C [Crystal form B],99.57%,99.56%,99.54%,−0.03,"more stable than crystal form 2, crystal form 4 and crystal form 5",good in particle fluidity,–
"CC(C)(C)[C@H](NC(=O)C(F)(F)F)C(=O)N1C[C@H]2[C@@H]([C@H]1C(=O)N[C@H](C#N)C[C@@H]1CCNC1=O)C2(C)C [HS378, (1R, 2S, 5S)-N-{(1S)-1-cyano-2-[(3S)-2-oxopyrrolidin-3-yl]-ethyl}-6,6-dimethyl-3-[3-methyl-N-(trifluoroacetyl)-L-valyl]-3-azabicyclo [3.1.0]hexane-2-carboxamide]",–,–,–,–,–,–,exceeding in vitro antiviral cell efficacy
